Measurements published in publication PMC9551276, “Design, synthesis and biological evaluation of novel orthosteric-allosteric ligands of the cannabinoid receptor type 2 (CB2R)” (Frontiers in Chemistry, 2022).
“And” between values parts separate entries of the source, which are not always exact repeats. Equal values may be shown once.

Tests used:
hCB2R [1] = molecular target: T1, hCB2R (Homo sapiens, UniProt P34972); test: DiscoveRx PathHunter βarrestin2 recruitment; format: cell-based
Experimental: βarrestin2 recruitment was quantified using the DiscoveRx PathHunter® assay. […] Detection solution was added to cells (DiscoveRx), and cells were incubated for 60 min at room temperature. Chemiluminescence was measured on a Cytation5 plate reader (top read, gain 200, integration time 10,000 ms).

hCB2R [2] = molecular target: T1, hCB2R; test: DiscoveRx HitHunter inhibition of FSK-stimulated cAMP accumulation; format: cell-based
Experimental: Inhibition of FSK-stimulated cAMP accumulation was measured using the DiscoveRx HitHunter assay.

hCB1R = molecular target: T2, hCB1R (Homo sapiens, UniProt P21554); test: [3H]CP55,940 radioligand displacement, CHO-K1 hCB1R membranes; format: binding; settings: % [3H]CP55,940 bound, 1 nM radioligand, 2 h
T2 construct: expressed in transfected cells; host or cells: CHO-K1 (ATCC CCL-61) stably expressing hCB1R; membranes
T2 sequence (P21554 whole entry): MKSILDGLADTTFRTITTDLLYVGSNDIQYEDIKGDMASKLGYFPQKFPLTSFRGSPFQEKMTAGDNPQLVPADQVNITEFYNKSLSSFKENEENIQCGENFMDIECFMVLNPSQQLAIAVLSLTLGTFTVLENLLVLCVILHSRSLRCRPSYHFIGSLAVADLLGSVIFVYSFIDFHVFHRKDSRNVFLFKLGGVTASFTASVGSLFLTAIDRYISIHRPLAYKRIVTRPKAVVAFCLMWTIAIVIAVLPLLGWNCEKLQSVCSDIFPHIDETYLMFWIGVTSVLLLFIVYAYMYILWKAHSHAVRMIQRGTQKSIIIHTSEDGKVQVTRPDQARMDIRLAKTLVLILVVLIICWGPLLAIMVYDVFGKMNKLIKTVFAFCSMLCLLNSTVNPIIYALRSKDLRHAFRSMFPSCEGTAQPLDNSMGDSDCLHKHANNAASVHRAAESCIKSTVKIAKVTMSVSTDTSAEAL
Experimental: (§1) CHO-K1 cells were thawed, diluted in Tris buffer (50 mM Tris [pH 7.4]) and homogenized in a 1 ml hand-held homogenizer. hCB1R and hCB2R CHO-K1 cell membranes were collected by cavitation in a pressure cell, and sedimented by ultracentrifugation. Pellets were resuspended in TME buffer (50 mM Tris, 5 mM MgCl2, 1 mM EDTA [pH 7.4]), and protein concentration was measured via the Bradford method according to the manufacturer’s directions (Bio-Rad Laboratories, Mississauga, ON). […] Radioligand binding began with the addition of CHO-K1 cell membranes (25 µg protein per sample). Assays were performed for 120 min at 37°C and stopped by the addition of ice-cold Tris binding buffer (pH 7.4), followed by vacuum filtration using a 24-well sampling manifold (Brandel Cell Harvester; Brandel Inc., Gaithersburg, MD, United States ). Brandel GF/B filter paper was soaked with wash buffer at 4 °C for at least 24 h. Each filter paper was washed 6 times with a 1.2 ml aliquot of Tris-binding buffer (pH 7.4), then air-dried and submerged in 5 ml of scintillation fluid (Ultima Gold XR, PerkinElmer). Liquid scintillation spectrometry was used to quantify radioactivity.

hCB2R [3] = molecular target: T1, hCB2R; test: [3H]CP55,940 radioligand displacement, CHO-K1 hCB2R membranes; format: binding; settings: for hCB2R E min (% CP55,940) ± S.E.M: % [3H]CP55,940 bound, 1 nM radioligand, 2 h; for Effect on [3H]CP55,940 bound to hCB2R: [3H]CP55,940 displacement
Experimental: as §1, with “Assays were performed for 120 min at 37°C and stopped by the addition of ice-cold Tris binding buffer (pH 7.4), followed by vacuum filtration using a 24-well sampling manifold (Brandel Cell Harvester; Brandel Inc., Gaithersburg, MD, United States ).” left out

[4] = test system: human microglial cells (HMC3); test: IL-6 and IL-10 release (ELISA) in LPS/TNFα-stimulated HMC3 cells; format: cell-based
Experimental: The concentrations of pro-inflammatory (IL-6) and anti-inflammatory (IL-10) interleukins were determined by performing specific ELISA assays (MyBioSource, San Diego, CA, United States ) on collected culture media. Human microglial cells (HMC3) were exposed to pretreatment with test compounds for 1 h followed by stimulation with LPS (10 μg/ml)/TNFα (50 ng/ml) for 24 h. In competition experiments, the CB2R antagonist (SR144528, 1 μM) or the CB2R positive allosteric modulator (EC21a 1 or 10 μM) were administered 15 min before agonist administration.

[5] = CHO-K1 hCB2R, 10 µM FSK, 90 min
[6] = CHO-K1 hCB2R, 90 min, read-out: βarrestin2 recruitment EC50 (95% C.I.)
[7] = CHO-K1 hCB2R, 10 µM FSK, 90 min, read-out: Inhibition of cAMP EC50 (95% C.I.)

T1 sequence (P34972 whole entry): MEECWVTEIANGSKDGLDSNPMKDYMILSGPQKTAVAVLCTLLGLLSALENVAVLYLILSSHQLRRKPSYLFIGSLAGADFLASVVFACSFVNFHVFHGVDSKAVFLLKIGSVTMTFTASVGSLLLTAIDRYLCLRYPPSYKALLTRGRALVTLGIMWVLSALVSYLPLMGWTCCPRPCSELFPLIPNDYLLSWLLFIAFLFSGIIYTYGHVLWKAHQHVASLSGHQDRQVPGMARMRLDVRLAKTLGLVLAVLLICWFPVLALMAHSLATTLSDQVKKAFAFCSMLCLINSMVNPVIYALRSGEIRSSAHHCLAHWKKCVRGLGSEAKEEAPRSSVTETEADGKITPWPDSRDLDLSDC

| SMILES | EC50 (hCB2R [1]) [nM] | βarrestin2 recruitment E max (% CP55,940) ± S.E.M (hCB2R [1]; CHO-K1 hCB2R, 90 min) | melting point | EC50 (hCB2R [2]) [nM] | Inhibition of cAMP E max (% CP55,940) ± S.E.M (hCB2R [2]; [5]) | hCB1R E min (% CP55,940) ± S.E.M (hCB1R) | IC50 (hCB2R [3]) [nM] | hCB2R E min (% CP55,940) ± S.E.M (hCB2R [3]) | Effect on [3H]CP55,940 bound to hCB2R (hCB2R [3]) | Response in βarrestin2 recruitment (hCB2R [1]; CHO-K1 hCB2R) | Response in inhibition of FSK-stimulated cAMP accumulation (hCB2R [2]; CHO-K1 hCB2R) | EC50 (hCB2R [2]; Inhibition of cAMP EC50 (95% C.I.), CHO-K1 hCB2R, 10 µM FSK, 90 min) [nM] | EC50 (hCB2R [2]; Inhibition of cAMP EC50 (95% C.I.), co-administration, EC21a concentration-response in the presence of 10 nM LV62, 10 µM FSK, 90 min) [nM] | Effect of co-administered EC21a on JR64a anti-inflammatory activity (IL-6 release) ([4]; EC21a at equimolar or higher doses, LPS/TNFα) | Effect of equimolar EC21a on LV62 anti-inflammatory activity ([4]; LV62 1 or 10 μM with EC21a 1:1, LPS/TNFα 24 h) | EC50 (hCB2R [1]; [6]) [nM] | EC50 (hCB2R [2]; [7]) [nM] |
| --- | --- | --- | --- | --- | --- | --- | --- | --- | --- | --- | --- | --- | --- | --- | --- | --- | --- |
| Cc1c(Br)cn(CCCCOCCCCn2c(=O)c(C(=O)NC3CCC(C)CC3)cc3cccnc32)c(=O)c1NC(=O)C1CCCCCC1 (stereo not shown) [JR60a, 1-(4-(4-(5-bromo-3-(cycloheptanecarboxamido)-4-methyl-2-oxopyridin-1(2H)-yl)butoxy)butyl)-N-(4-methylcyclohexyl)-2-oxo-1,2-dihydro-1,8-naphthyridine-3-carboxamide] | > 10000 | 36 ± 9.2 % CP55,940 | 118 °C (dec.) | 770 | 46 ± 4.4 % CP55,940 | – | – | – | – | – | – | – | – | – | – | – | – |
| Cc1c(Br)cn(Cc2ccc(F)cc2)c(=O)c1NC(=O)C1CCCCCC1 [EC21a, reference compound] | > 10000 | 1.4 ± 0.96 % CP55,940 | – | – | 2.5 ± 0.53 % CP55,940 | 103 ± 2.5 % CP55,940 | 36 | 115 ± 7.9 % CP55,940 | increased | no response was detected | no response was detected | > 10000 | 4.3 | no effects on JR64a anti-inflammatory activity | enhanced LV62 anti-inflammatory activity | – | – |
| Cc1c(Br)cn(Cc2cn(CCCCCn3c(=O)c(C(=O)NC4CCC(C)CC4)cc4cccnc43)nn2)c(=O)c1NC(=O)C1CCCCCC1 (stereo not shown) [JR26a, 1-(5-(4-((5-bromo-3-(cycloheptanecarboxamido)-4-methyl-2-oxopyridin-1(2H)-yl)methyl)-1H-1,2,3-triazol-1-yl)pentyl)-N-(4-methylcyclohexyl) -2-oxo-1,2-dihydro-1,8-naphthyridine-3-carboxamide] | – | 39 ± 6.1 % CP55,940 | 116 °C (dec.) | – | 41 ± 5.1 % CP55,940 | – | – | – | – | – | – | – | – | – | – | > 10000 | 110 |
| CC1CCC(NC(=O)c2cc3cccnc3n(CCCCCO)c2=O)CC1 (stereo not shown) [LV62, reference compound] | – | 65 ± 1.4 % CP55,940 | – | 58 | 110 ± 8.8 % CP55,940 and 110 ± 5.3 % CP55,940 | 106 ± 3.6 % CP55,940 | 0.65 | 16 ± 11.9 % CP55,940 | fully displaced | – | – | – | – | – | – | – | – |
| Cc1c(Br)cn(CCCCCn2c(=O)c(C(=O)NC3CCC(C)CC3)cc3cccnc32)c(=O)c1NC(=O)C1CCCCCC1 (stereo not shown) [JR61a, 1-(5-(5-bromo-3-(cycloheptanecarboxamido)-4-methyl-2-oxopyridin-1(2H)-yl)pentyl)-N-(4-methylcyclohexyl)-2-oxo-1,2-dihydro-1,8-naphthyridine-3-carboxamide] | > 10000 | 34 ± 2.2 % CP55,940 | 118 °C (dec.) | 420 | 46 ± 1.7 % CP55,940 | – | – | – | – | – | – | – | – | – | – | – | – |
| Cc1c(Br)cn(CCCc2cn(CCCCCn3c(=O)c(C(=O)NC4CCC(C)CC4)cc4cccnc43)nn2)c(=O)c1NC(=O)C1CCCCCC1 (stereo not shown) [JR22a, 1-(5-(4-(3-(5-bromo-3-(cycloheptanecarboxamido)-4-methyl-2-oxopyridin-1(2H)-yl)propyl)-1H-1,2,3-triazol-1-yl)pentyl)-N-(4-methylcyclohexyl)-2-oxo-1,2-dihydro-1,8-naphthyridine-3-carboxamide] | > 10000 | 33 ± 3.1 % CP55,940 | 114 °C (dec.) | 62 | 38 ± 5.5 % CP55,940 | – | – | – | – | – | – | – | – | – | – | – | – |
| Cc1c(Br)cn(CCCc2cn(CCCCC(=O)NC3CCC(NC(=O)c4cc5cccnc5n(Cc5ccc(F)cc5)c4=O)CC3)nn2)c(=O)c1NC(=O)C1CCCCCC1 (stereo not shown) [JR14a, N-(4-(5-(4-(3-(5-bromo-3-(cycloheptanecarboxamido)-4-methyl-2-oxopyridin-1(2H)-yl)propyl)-1H-1,2,3-triazol-1-yl)pentanamido)cyclohexyl)-1-(4-fluorobenzyl)-2-oxo-1,2-dihydro-1,8-naphthyridine-3-carboxamide] | – | 39 ± 0.93 % CP55,940 | 108 °C (dec.) | – | 41 ± 5.7 % CP55,940 | 98 ± 2.5 % CP55,940 | 1.8 | 59 ± 12.3 % CP55,940 | – | – | modest partial agonist activity | – | – | – | – | 25 | 150 |
| Cc1c(Br)cn(CCOCCn2c(=O)c(C(=O)NC3CCC(C)CC3)cc3cccnc32)c(=O)c1NC(=O)C1CCCCCC1 (stereo not shown) [JR58a, 1-(2-(2-(5-bromo-3-(cycloheptanecarboxamido)-4-methyl-2-oxopyridin-1(2H)-yl)ethoxy)ethyl)-N-(4-methylcyclohexyl)-2-oxo-1,2-dihydro-1,8-naphthyridine-3-carboxamide] | > 10000 | 51 ± 2.8 % CP55,940 | 110 °C (dec.) | 270 | 45 ± 2.9 % CP55,940 | – | – | – | – | – | – | – | – | – | – | – | – |
| Cc1c(Br)cn(Cc2cn(CCCCC(=O)NC3CCC(NC(=O)c4cc5cccnc5n(Cc5ccc(F)cc5)c4=O)CC3)nn2)c(=O)c1NC(=O)C1CCCCCC1 (stereo not shown) [JR16a, N-(4-(5-(4-((5-bromo-3-(cycloheptanecarboxamido)-4-methyl-2-oxopyridin-1(2H)-yl)methyl)-1H-1,2,3-triazol-1-yl)pentanamido)cyclohexyl)-1-(4-fluorobenzyl)-2-oxo-1,2-dihydro-1,8-naphthyridine-3-carboxamide] | – | 27 ± 4.2 % CP55,940 | 113 °C (dec.) | – | 36 ± 8.6 % CP55,940 | – | – | – | – | – | – | – | – | – | – | – | 350 |
